# Source: patent US6376540B1, “Furan nitrone compounds” (Centaur Pharmaceuticals, Inc., priority 1996, dated 2002)
# How the values were obtained:
# [1] = Free radical trapping, DCF oxidation, ferrous iron system; format: biochemical; details: 100 μM test compound, 100 μM FeSO4, 50 μM DCF in MEM, 37° C., 2 hrs
# Description: (§1) Dichlorofluorescein (DCF) is a compound that fluoresces when oxidized by reactive oxygen species (ROS), such as hydroxyl, peroxyl, or alkoxyl free radicals. Test compounds were evaluated for their ability to scavenge radicals by determining their capacity to prevent the DCF oxidation in a radical generating environment. Two radical generating systems were used: (i) ferrous iron and (ii) tert-butyl hydroperoxide. When ferrous iron is placed in normoxic solution, it autooxidizes to produce ROS in the form of hydroxyl radicals, superoxide anion free radicals, and hydrogen peroxide. Similarly, when tert-butyl hydroperoxide is placed in non-chelated media, trace metals catalyze its oxidation to yield alkoxy, peroxyl, and alkyl free radicals.
# (§2) In this assay, either 100 μM FeSO4 or 25 μM tert-butyl hydroperoxide were mixed with 50 μM DCF and 100 μM of the test compound in MEM and the mixture was incubated at 37° C. for 2 hrs. The fluorescence wavelengths measured were 485 nm for excitation and 530 nm for emission. In these tests, N-isopropyl-α-(2-sulfofuran-5-yl)nitrone sodium salt (prepared in Example 1 above) reduced fluorescence by 20% in the Fe^+2 assay and by 13% in the tert-butyl hydroperoxide assay. In comparison, a known free radical trap, N-tert-butyl-α-phenylnitrone (PBN) reduced fluorescence by 48% in the Fe^+2 assay and by 9% in the tert-butyl hydroperoxide assay.
# [2] = Free radical trapping, DCF oxidation, tert-butyl hydroperoxide system; format: biochemical; details: 100 μM test compound, 25 μM tert-butyl hydroperoxide, 50 μM DCF in MEM, 37° C., 2 hrs
# Description: as §1, §2
# [3] = tested on: Male Sprague-Dawley rats; assay: Locomotor impairment due to Aβ(25-35), apomorphine-induced circling; format: in vivo, rat; details: one hour before and three hours post Aβ injection, apomorphine 0.5 mg/kg s.c. one week after
# Description: Male Sprague-Dawley rats (250-400 g) were given an ipsilateral injection of 20 μg of Aβ(25-35) into their substantia nigra. Prior to the injection, the rats were fasted overnight and then each received an oral treatment of N-isopropyl-α-(2-sulfofuran-5-yl)nitrone sodium salt (prepared in Example 1 above)(10-100 mg/kg) dissolved in aqueous 1% methyl cellulose or the vehicle alone, one hour before and three hours post the Aβ-peptide stereotaxic injection. One week after treatment, the rats were dosed s.c. with 0.5 mg/kg apomorphine (dissolved in 0.1% vitamin C in isotonic saline) and the circling reflex was monitored using a Rotorat computerized behavioral monitoring apparatus for the time period between 15 and 30 minutes of being placed in the arena. Impairment of the animals due to Aβ-peptide was determined by measuring the number of rotations over the 15 minute period. A higher number of rotations per period indicates more physical impairment.
# [4] = tested on: rats; assay: N-nitro-L-arginine-induced spatial learning deficit; format: in vivo, rat; details: 10 mg/kg 30 min before each of nine doses of N-nitro-L-arginine (100 mg/kg)
# Excerpt: Treatment of rats with N-nitro-L-arginine, a nitric oxide synthase inhibitor, is known to cause a deficit in spatial learning. See, for example, G. A. Bohme et al., (1993) PNAS, 90:9191-9194. Rats treated with N-nitro-L-arginine wander aimlessly throughout their enclosure whereas untreated rats spend most of their time in the quadrant in which they are initially placed and stay away from the open area in the middle of the enclosure. This N-nitro-L-arginine-induced spatial learning deficit is used as a model for learning deficits caused by Alzheimer's disease and other dementias.
# In this experiment, 10 mg/kg of N-isopropyl-α-(2-sulfofuran-5-yl)nitrone sodium salt (prepared in Example 1 above) or a control was administered 30 min before each of nine doses of N-nitro-L-arginine (100 mg/kg. iip.). The wanderings of the rats were then monitored. […] In contrast, rats treated with N-nitro-L-arginine and N-isopropyl-α-(2-sulfofuran-5-yl)nitrone sodium salt show a preference for the area of the enclosure into which they were first placed and rarely cross the center of the enclosure as illustrated in FIG. 3C. This behavior is essentially the same as rats treated with a saline control (i.e., without N-nitroL-arginine)(see FIG. 3A).
# [5] = tested on: female Lewis rats; assay: MBP-induced experimental allergic encephalomyelitis (EAE), behavioral score; format: in vivo, rat; details: 100 mg/kg po once a day from days 4 to 18
# Description: Experimental allergic encephalomyelitis (EAE) induced by injection of myelin basic protein (MBP) or MBP peptide fragments is reported to be a useful model for MS. See, for example, D. E. McFarlin et al., “Recurrent Experimental Allergic Encephalomyelitis in the Lewis Rat,” The Journal of Immunology, 113(2): 712-715 (1974).
# (§3) Acclimated female Lewis rats, (Harlan; 200-250 g) were used in this experiment since this strain of rat is genetically highly susceptible to EAE. In the experiment, 100 mg/kg of N-isopropyl-α-(2-sulfofuran-5-yl)nitrone sodium salt (prepared in Example 1 above) or a vehicle alone (control) was administered po once a day from days 4 to 18. On day 1, the rats received an injection of 100 μg of MBP peptide, from guinea pig brain, plus 500 μg of H37RA Mycobacterium in 0.10 ml complete Freund's adjuvant divided equally between the two hind foot-pads.
# The rats were evaluated on a 0-6 scale every day after day 7 until day 18 (effects usually begin day 10 and peak day 15). See E. Heber-Katz, “The Ups and Downs of EAE,” International Reviews Immunology, 9: 277-285 (1992). […] Results are expressed as a behavioral score ranging from 0 to 6.
# [6] = tested on: female Lewis rats; assay: Prevention of weight loss in the EAE model; format: in vivo, rat; details: 100 mg/kg po once a day, weighed daily
# Description: as §3
# To determine if the furan nitrones of formula I prevented such weight loss, the animals in the EAE model described in Example 27 above were weighed daily.
# [7] = tested on: Fas^1pr mutation mice; assay: Learning deficit in autoimmune mice, active avoidance T-maze; format: in vivo
# Description: Male MRL/MpJ controls and Fas^1pr mutation mice were either dosed orally with 1% methylcellulose (“MC”) or with 100 mg/kg of N-isopropyl-α-(2-sulfofuran-5-yl)nitrone sodium salt (prepared in Example 1 above)(“test compound”) in 1% methylcellulose for 9-10 weeks. Following dosing, animals of approximately 4 months of age were tested in an active avoidance T-maze. In the one day test, animals were analyzed for acquisition to avoid shock within the first five trials of the test.
structure (smiles),measurement,setting,value
"CC(C)[N+]([O-])=Cc1ccc(S(=O)(=O)O)o1 [Example 1, N-Isopropyl-α-(2-sulfofuran-5-yl)nitrone]",reduced fluorescence in the Fe^+2 assay,[1],20%
same,reduced fluorescence in the tert-butyl hydroperoxide assay,[2],13%
same,Rotations Over 15 Minute Period,[3]; Aβ(25-35) + 10 mg/kg oral,9
same,Rotations Over 15 Minute Period,[3]; Aβ(25-35) + 100 mg/kg oral,6
same,spatial learning deficit caused by N-nitro-L-arginine,[4],prevents the spatial learning deficit
same,effect of MBP on behavioral score (0-6 scale),[5],completely counteracted the effect of MBP
same,weight change,[6],normal or above normal weight gain
same,protection in acquisition learning deficit compared to Fas mutated animals receiving only 1% methylcellulose,"[7]; 100 mg/kg orally for 9-10 weeks, two experiments combined (n=14-15)",50%
same,Mean Acquisition Values (Maximum score of 5.0),"[7]; Fas^1pr mice, 100 mg/kg orally in 1% methylcellulose for 9-10 weeks, first five trials",Mean = 1.467
